{
  "source": "patent US12569460B2",
  "about": "“Application of thyroid hormones and thyroid hormone analogues to preparation of drugs for treating sickle-cell disease” (RUIJIN HOSPITAL, SHANGHAI JIAO TONG UNIVERSITY SCHOOL OF …, priority 2020, dated 2026)",
  "key": {"ζ-globin gene (hbae5) [1]": {"test_system": "ζ-globin gene (hbae5)", "experiment": "Whole-mount mRNA in situ hybridization (WISH) of ζ-globin gene (hbae5) in zebrafish embryos", "type": "in vivo", "conditions": "5 μmol/L, 24 hours", "description": "(§1) K562 cells were cultured in RPMI 1640 medium supplemented with 10% (v/v) fetal bovine serum; Hemin was dissolved into 0.2 mol/L NaOH solution, and the working concentration for treating K562 cells is 20 μmol/L; Triac, T3 and T4 were dissolved into dimethyl sulfoxide (DMSO), and the working concentration for treating K562 cells and zebrafish embryos is 20 μmol/L and 5 μmol/L, respectively.\nAfter treatment with Triac, T3 and T4 for 24 hours, respectively, zebrafish embryos were fixed by 4% paraformaldehyde. The expression of ζ-globin gene (hbae5) was detected by Whole-mount mRNA in situ hybridization (WISH)."}, "ζ-globin gene (hbae5) [2]": {"test_system": "ζ-globin gene (hbae5)", "experiment": "qPCR of ζ-globin gene (hbae5) expression in zebrafish embryos", "type": "in vivo", "conditions": "5 μmol/L, 24 hours", "description": "as §1\nAfter treatment with Triac, T3 and T4 for 24 hours, respectively, zebrafish embryos were collected. TRIzol reagent (Invitrogen) was used to extract total RNA, then a reverse transcription kit (ReverTra Ace, TOYOBO) was used to synthesize cDNA, and finally, a SYBRGreen Realtime PCR Master Mix (TOYOBO) reagent was used to perform quantitative PCR.\n(§2) The quantitative PCR reaction system is:\n(§3) The quantitative PCR reaction conditions are: • hot start: 95° C., 10 minutes; • denaturation: 95° C., 10 seconds; and • annealing/extension: 60° C., 30 seconds. • 40 circles. Analysis of a […]"}, "ζ-globin gene (HBZ)": {"test_system": "ζ-globin gene (HBZ)", "experiment": "qPCR of ζ-globin gene (HBZ) expression in hemin-treated K562 cells", "type": "cell-based, human", "conditions": "hemin plus Triac 20 μmol/L, 72 hours", "description": "as §1\nK562 cells were treated with hemin or hemin plus Triac for 72 hours, respectively, centrifugation was performed at 2000 rpm for 5 minutes to collect cells, a TRIzol reagent (Invitrogen) was used to extract total RNA, then a reverse transcription kit (ReverTra Ace, TOYOBO) was used to synthesize cDNA, and finally, a SYBR Green Realtime PCR Master Mix (TOYOBO) reagent was used to perform quantitative PCR.\nas §2, §3"}},
  "data": [
    {"smiles": "N[C@@H](Cc1cc(I)c(Oc2cc(I)c(O)c(I)c2)c(I)c1)C(=O)O", "note": "[T4, 3,3′,5,5′-tetraiodothyronine]", "values": [
      {"measurement": "expression of ζ-globin gene (hbae5) by WISH", "setting": "ζ-globin gene (hbae5) [1]", "result": "significantly induce the expression"},
      {"measurement": "expression of ζ-globin gene (hbae5) up-regulated (qPCR)", "setting": "ζ-globin gene (hbae5) [2]", "result": 41, "unit": "folds"}
    ]},
    {"smiles": "O=C(O)Cc1cc(I)c(Oc2ccc(O)c(I)c2)c(I)c1", "note": "[Triac, 2-[4-(4-Hydroxy-3-iodophenoxy)-3,5-diiodophenyl] acetic acid]", "values": [
      {"measurement": "expression of ζ-globin gene (HBZ) up-regulated (qPCR)", "setting": "ζ-globin gene (HBZ)", "result": 50.9, "unit": "folds"},
      {"measurement": "expression of ζ-globin gene (hbae5) by WISH", "setting": "ζ-globin gene (hbae5) [1]", "result": "significantly induce the expression"},
      {"measurement": "expression of ζ-globin gene (hbae5) up-regulated (qPCR)", "setting": "ζ-globin gene (hbae5) [2]", "result": 76, "unit": "folds"}
    ]},
    {"smiles": "N[C@@H](Cc1cc(I)c(Oc2ccc(O)c(I)c2)c(I)c1)C(=O)O", "note": "[T3, 3,3′,5-Triiodo-L-thyronine]", "values": [
      {"measurement": "expression of ζ-globin gene (hbae5) by WISH", "setting": "ζ-globin gene (hbae5) [1]", "result": "significantly induce the expression"},
      {"measurement": "expression of ζ-globin gene (hbae5) up-regulated (qPCR)", "setting": "ζ-globin gene (hbae5) [2]", "result": 31, "unit": "folds"}
    ]}
  ]
}
